Assay [1] concerns C. albicans. Kind of assay: MIC microtiter assay, C. albicans. The assay is classed as cell-based. The note with it: Mueller Hinton broth, 16-20 hours at 37° C. An excerpt:
(§1) Table I, which follows, indicates the Minimal Inhibitory Concentration (MIC) in μg/ml of various peptides, against S. aureus strain ATCC 25923(S), P. aeruginosa strain ATCC 27853(P), and E. coli ATCC strain 25922(E), and C. albicans (CA). […] The peptides ere unsubstituted at the N-terminal, substituted with an acetyl group at the N-terminal as indicated by Ac-; substituted with an octanoyl group at the N-terminal as indicated by Oct-, substituted with sphingosine as indicated by Sph-; substituted with a succinyl group, as indicated by Suc-; substituted with a hexanoyl group, as indicated by Hex-; substituted with a heptanoyl group, as indicated by Hep; substituted with a valeryl group, as indicated by Val-; substituted with, a myristryl group, as indicated by Myr-; or substituted with an ibuprofyl group, as indicated by Ibu-.
The procedure for the antibacterial assay is based upon the guidelines of the National Committee for Clinical Laboratory Standards, Document M7-T2, Volume 8, No. 8, 1988.
Stock solutions of peptides with and without the appropriate substitutions,are prepared at a concentration of 512 μg/ml in sterile deionized distilled water and stored at -70° C. Each peptide is a C-terminal amide.
The stock peptide solution is diluted in serial dilutions (1:2) down the wells of a microtiter plate so that the final concentrations of peptides in the wells are 0.25, 0.50, 1, 2, 4, 8, 16, 32, 64, 128, and 256 μg/ml. 1-5×10^5 CFUs/ml of either S. aureus ATCC 25923, E. coli ATCC 25922, P. aeruginosa ATCC 27853, or C. albicans, were added to the wells in full strength Mueller Hinton broth (BBL 11443) from a mid-log culture. The inoculum is standardized spectrophotometrically at 600 nm and is verified by colony counts. The plates are incubated for 16-20 hours at 37° C., and the minimal inhibitory concentration (MIC) for each peptide is determined. Minimal inhibitory concentration is defined as the lowest concentration of peptide which produces a clear well in the microtiter plate. […]

The test system of assay [2] is P. gingivalis. Kind of assay: Anaerobic antimicrobial susceptibility test (NCCLS M11-T2), P. gingivalis. The assay is classed as cell-based. To be noted: 24-48 hours; for MIC P. gingivalis (strain) 9-14K-1: strain 9-14K-1, BHI broth; for MIC P. gingivalis (strain) 381: strain 381, BHI broth; for MIC P. gingivalis (strain) A7A1-28: strain A7A1-28, BHI broth; for MIC P. gingivalis (strain) FAY-19M-1: strain FAY-19M-1, BHI broth; for MIC P. gingivalis (strain) W50: strain W50, BHI broth.

Assay [3] has as its system S. mutans. Kind of assay: Anaerobic antimicrobial susceptibility test (NCCLS M11-T2), S. mutans. The class given is cell-based. The note with it: BHI broth, 24-48 hours.
Assay [4] has as its system A. viscosus. Kind of assay: Anaerobic antimicrobial susceptibility test (NCCLS M11-T2), A. viscosus. The class given is cell-based. To be noted: BHI broth, 24-48 hours.
Assay [5] in a line: Inhibition of lipopolysaccharide binding to dye (LPS50). Set-up: species or system E. coli. The note with it: concentration of peptide necessary to inhibit the binding of 50% of the lipopolysaccharide to the dye; absorbance at 460 nm and 510 nm. The method, then: A stock solution (10×) of 0.6 mM dye is prepared by adding 1.68 mg of (1-ethyl-2-(3-[1-ethylnaphthol(1,2-d)- thiazolin-2-ylidene]-2-methylpropenyl)naphtho-(1,2-d)-thiazolium bromide (Signa E-7762) to 5 ml of 200 proof ethanol. 1 ml of this solution was added to 9 ml ethanol to give 0.06 mM of dye (60 μM dye).
A stock solution of lipopolysaccharide (LPS) from E. coli serotype 0111:B4 was prepared at 1.5 mg/ml. 400 μl of this solution was mixed with 4.6 ml pyrogen free water to give a 120 μg/ml solution.
Row 1 and rows 3 through 12 of a microtiter plate were filled with 100 μl of pyrogen free water or with 10 mg/ml of bovine serum albumin. 200 μl of peptide then is added to row 2 of the microtiter plate at a concentration of […]. 200 μl of pyrogen free water is added to each of the control wells in two lanes (having dye and LPS but no peptide or having dye and no LPS and no peptide). 100 μl then is serially diluted from row 2 through row 12 of the microtiter plate. 50 μl of PBS (pH 7.4) and 50 μl of the LPS solution then are added to row 1 of the plate (blank wells).
Equal volumes of the LPS solution, the dye, and PBS (pH 7.4, approx. 150 mM) are mixed to form a dye-buffer--LPS mixture having LPS at a final concentration of 40 μg/mi and dye at a final concentration of 20 μM. The dye-buffer LPS mixture then is incubated for 10 minutes at room temperature in the dark.
The plate is incubated for 10 minutes at room temperature in the dark, and the absorbance at 460 nm and 510 nm is read. From these absorbances, the LPS50 value, which is the concentration in mg/ml of peptide necessary to inhibit the binding of 50% of the lipopolysaccharide to the dye, is calculated.

Assay [6] has as its system S. aureus strain ATCC 25923. The experiment in a line: Antibacterial MIC microtiter assay (NCCLS M7-T2), S. aureus. The note with it: S. aureus ATCC 25923; Mueller Hinton broth, 16-20 hours at 37° C. The assay is classed as cell-based.
Text: as §1
(§2) The procedure for the antibacterial assay is based upon the guidelines of the National Committee for Clinical Laboratory Standards, Document M7-T2, Volume 8, No. 8, 1988. […]
(§3) The stock peptide solution is diluted in serial dilutions (1:2) down the wells of a microtiter plate so that the final concentrations of peptides in the wells are 0.25, 0.50, 1, 2, 4, 8, 16, 32, 64, 128, and 256 μg/ml. […] The plates are incubated for 16-20 hours at 37° C., and the minimal inhibitory concentration (MIC) for each peptide is determined. […]

Assay [7] concerns P. aeruginosa strain ATCC 27853. Kind of assay: Antibacterial MIC microtiter assay (NCCLS M7-T2), P. aeruginosa. The assay is classed as cell-based. The note with it: P. aeruginosa ATCC 27853; Mueller Hinton broth, 16-20 hours at 37° C.
Text: as §1, §2, §3

Assay [8] relates to E. coli ATCC strain 25922. Kind of assay: Antibacterial MIC microtiter assay (NCCLS M7-T2), E. coli. The class given is cell-based. To be noted: E. coli ATCC 25922; Mueller Hinton broth, 16-20 hours at 37° C.
Text: as §1, §2, §3

The values below come from patent publication US5654274A, “Biologically active peptides having N-terminal substitutions” (priority 1995, dated 1997).

Square brackets hold non-standard residues; d marks the D form. Ends that are not written are not given here. Peptide text beside a SMILES is read from it. * marks the point of attachment. Octanoyl = CCCCCCCC(=O)*

With `CCCCCCCC(=O)N[C@@H](CCCCN)C(=O)N[C@@H](Cc1c[nH]c2ccccc12)C(=O)N[C@@H](CCCCN)C(=O)N[C@@H](CC(C)C)C(=O)N[C@@H](Cc1ccccc1)C(=O)N[C@@H](CCCCN)C(=O)N[C@@H](CCCCN)C(=O)N[C@H](C(=O)N[C@@H](CCC(=O)O)C(=O)N[C@@H](CCCCN)C(=O)N[C@H](C(N)=O)C(C)C)[C@@H](C)CC` [Oct-(SEQ ID NO: 136)-NH2] (Octanoyl-KWKLFKKIEKV-NH2), the “Minimal Inhibitory Concentration CA” value in assay [1] was 128 µg/mL.

With “KIAKKIAKIAKKIAKIAKKIA-NH2 [(SEQ ID NO: 86)-NH2]”, in assay [2], the “MIC P. gingivalis (strain) 9-14K-1” value came to 8 μl/ml, the “MIC P. gingivalis (strain) 381” value was 8 μl/ml, the “MIC P. gingivalis (strain) A7A1-28” value is recorded as 2 μl/ml and the “MIC P. gingivalis (strain) FAY-19M-1” value was 8,128 μl/ml. Moreover, the “MIC P. gingivalis (strain) W50” value in assay [2] came to 4 μl/ml. In assay [3], the “MIC S. mutans” value is 4 μl/ml. Moreover, the “MIC A. viscos” value in assay [4] came out at 16 μl/ml.

In assay [5], `CCCCCCCC(=O)N[C@H](CC(C)C)C(=O)N[C@H](CCCCN)C(=O)N[C@H](CCCCN)C(=O)N[C@H](CC(C)C)C(=O)N[C@H](CC(C)C)C(=O)N[C@H](CCCCN)C(=O)N[C@H](CCCCN)C(=O)N[C@H](CC(C)C)C(=O)N[C@H](CCCCN)C(=O)N[C@H](CCCCN)C(=O)N[C@H](CC(C)C)C(N)=O` [Oct-D-(SEQ ID NO: 110)-NH2] (Octanoyl-[dL][dK][dK][dL][dL][dK][dK][dL][dK][dK][dL]-NH2) gave an LPS50 of 0.97 µg/mL.

Consider “(SEQ ID NO: 86)-OH: unsubstituted (Lys Ile Ala Lys Lys Ile Ala)3, C-terminal OH (KIAKKIAKIAKKIAKIAKKIA-OH)”, for which the “Minimal Inhibitory Concentration S” value in assay [6] was 128 µg/mL. Besides, the “Minimal Inhibitory Concentration P” value in assay [7] was determined as 32 µg/mL. Also, the “Minimal Inhibitory Concentration E” value in assay [8] is 2 µg/mL. The “Minimal Inhibitory Concentration CA” value in assay [1] is 256 µg/mL. For the same molecule, in assay [2], the “MIC P. gingivalis (strain) 9-14K-1” value came out at 16 μl/ml, the “MIC P. gingivalis (strain) 381” value came to 16 μl/ml, the “MIC P. gingivalis (strain) A7A1-28” value worked out at 4 μl/ml and the “MIC P. gingivalis (strain) FAY-19M-1” value was found to be 8 μl/ml. Moreover, in assay [2], the “MIC P. gingivalis (strain) W50” value was 4 μl/ml. In addition, the “MIC S. mutans” value in assay [3] is on record as 16 μl/ml. Besides, the “MIC A. viscos” value in assay [4] came to 32 μl/ml.

For `CCCCCCCC(=O)N[C@@H](CC(C)C)C(=O)N[C@@H](CC(C)C)C(=O)N[C@@H](CCCCN)C(=O)N[C@@H](CCCCN)C(=O)N[C@@H](CC(C)C)C(=O)N[C@@H](CCCCN)C(=O)N[C@@H](CCCCN)C(=O)N[C@@H](CC(C)C)C(N)=O` [Oct-(SEQ ID NO: 107)-NH2] (Octanoyl-LLKKLKKL-NH2), the LPS50 in assay [5] turned out to be 15.00 µg/mL.

In turn, `CCCCCCCC(=O)N[C@@H](CC(C)C)C(=O)N[C@@H](CCCCN)C(=O)N[C@@H](CCCCN)C(=O)N[C@@H](CC(C)C)C(=O)N[C@@H](CC(C)C)C(=O)N[C@@H](CCCCN)C(=O)N[C@@H](CCCCN)C(N)=O` [Oct-(SEQ ID NO: 137)-NH2] (Octanoyl-LKKLLKK-NH2) showed an LPS50 in assay [5] of 4.80 µg/mL.

For “(SEQ ID NO: 27)-OH: unsubstituted (Lys Ile Ala Gly Lys Ile Ala)3, C-terminal OH (KIAGKIAKIAGKIAKIAGKIA-OH)”, the “Minimal Inhibitory Concentration S” value in assay [6] amounted to 128 µg/mL. The “Minimal Inhibitory Concentration P” value in assay [7] was found to be 128 µg/mL. Besides, the “Minimal Inhibitory Concentration E” value in assay [8] came to 8 µg/mL.

As to `CCCCCCCC(=O)NCC(=O)N[C@H](C(=O)N[C@@H](CCCCN)C(=O)N[C@@H](CCCCN)C(=O)N[C@@H](Cc1ccccc1)C(=O)N[C@@H](CC(C)C)C(=O)N[C@@H](CCCCN)C(=O)N[C@@H](CCCCN)C(=O)N[C@@H](C)C(=O)NCC(=O)N[C@@H](CCCCN)C(=O)N[C@@H](Cc1ccccc1)C(=O)NCC(=O)N[C@@H](CCCCN)C(=O)N[C@@H](C)C(=O)N[C@@H](Cc1ccccc1)C(N)=O)[C@@H](C)CC` [Oct-(SEQ ID NO: 149)-NH2] (Octanoyl-GIKKFLKKAGKFGKAF-NH2), in assay [1], the “Minimal Inhibitory Concentration CA” value was found to be 128 µg/mL.
